Test results from US20230071840A1, “HETEROCYCLIC GLP-1 AGONISTS” (Gasherbrum Bio, Inc., priority 2020, published 2023).

The molecules below were run against GLP-1 Receptor (Homo sapiens, UniProt P43220) (assay: GLP-1R agonist cAMP stimulation assay (HEK293/GLP1R/CRE-LUC cells, cAMP dynamic 2 kit)). Conditions: HEK293/CRE-Luc cell line stably expressing the GLP-1 Receptor; 30 min incubation at 37° C.; read-out: GLP1R cAMP Stimulation DR: EC50.
Format: cell-based
Outline: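 HEK293/CRE-Luc cells stably expressing human GLP-1R stimulated 30 min at 37 °C, 5% CO2. cAMP detected with HTRF cAMP-d2/anti-cAMP cryptate reagents after 1 h at room temperature; % activity normalised between vehicle and maximal control.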

Chain of GLP-1 Receptor (P43220 24-463, species assumed): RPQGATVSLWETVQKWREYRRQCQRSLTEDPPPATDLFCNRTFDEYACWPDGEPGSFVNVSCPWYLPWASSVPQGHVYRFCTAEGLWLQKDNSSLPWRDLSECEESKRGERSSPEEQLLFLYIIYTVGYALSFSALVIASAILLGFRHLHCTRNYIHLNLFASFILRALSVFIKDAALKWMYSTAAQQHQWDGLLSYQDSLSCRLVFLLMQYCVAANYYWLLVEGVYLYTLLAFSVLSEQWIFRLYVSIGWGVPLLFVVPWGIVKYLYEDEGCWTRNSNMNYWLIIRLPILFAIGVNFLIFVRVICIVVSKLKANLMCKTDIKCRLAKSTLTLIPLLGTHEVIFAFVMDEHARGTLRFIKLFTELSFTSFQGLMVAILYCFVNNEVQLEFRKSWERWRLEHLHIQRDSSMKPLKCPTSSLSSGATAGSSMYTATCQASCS

First: O=C(O)c1ccc2nc(CN3CCC(Oc4nc(Cc5ccc(Cl)cc5)ncc4F)CC3)n(C[C@H]3CCOC3)c2n1 [Compound 197a, (R)-2-((4-((2-(4-chlorobenzyl)-5-fluoropyrimidin-4-yl)oxy)piperidin-1-yl)methyl)-3-((tetrahydrofuran-3-yl)methyl)-3H-imidazo[4,5-b]pyridine-5-carboxylic acid]
Second: O=C(O)c1ccc2nc(CN3CCC(Oc4nc(Cc5ccc(Cl)cc5F)ncc4F)CC3)n(C[C@@H]3CCO3)c2n1 [Compound 151a, (S)-2-((4-((2-(4-chloro-2-fluorobenzyl)-5-fluoropyrimidin-4-yl)oxy)piperidin-1-yl)methyl)-3-(oxetan-2-ylmethyl)-3H-imidazo[4,5-b]pyridine-5-carboxylic acid]
The EC50 of the first is 29-fold higher: 2.5 nM for the first, 0.085 nM for the second.

`O=C(O)c1ccc2nc(CN3CCC(Oc4cccc(Cc5ccc(Cl)cc5)n4)CC3)n(C[C@@H]3CCO3)c2n1` [Compound 124a, (S)-2-((4-((6-(4-chlorobenzyl)pyridin-2-yl)oxy)piperidin-1-yl)methyl)-3-(oxetan-2-ylmethyl)-3H-imidazo[4,5-b]pyridine-5-carboxylic acid] and `O=C(O)c1ccc2nc(CN3CCC(Oc4ccnc(Cc5ccc(Cl)cc5)n4)CC3)n(C[C@@H]3CCO3)c2n1` [Compound 152a, 2-{[4-({2-[(4-chlorophenyl)methyl]pyrimidin-4-yl}oxy)piperidin-1-yl]methyl}-3-{[(2S)-oxetan-2-yl]methyl}-3H-imidazo[4,5-b]pyridine-5-carboxylic acid] are within 1.5-fold of each other in EC50: 0.043 nM for the first, 0.038 nM for the second.

Compared with `O=C(O)c1cnc2nc(CN3CCC(Oc4ccnc(Cc5ccc(Cl)cc5F)n4)CC3)n(C[C@@H]3CCO3)c2c1` [Compound 161a, 2-{[4-({2-[(4-chloro-2-fluorophenyl)methyl]pyrimidin-4-yl}oxy)piperidin-1-yl]methyl}-1-{[(2S)-oxetan-2-yl]methyl}-1H-imidazo[4,5-b]pyridine-6-carboxylic acid], `O=C(O)c1ccc2nc(CN3CCC(Oc4ccnc(Cc5ccc(Cl)cc5Cl)n4)CC3)n(C[C@@H]3CCO3)c2n1` [Compound 164a, 2-{[4-({2-[(2,4-dichlorophenyl)methyl]pyrimidin-4-yl}oxy)piperidin-1-yl]methyl}-3-{[(2S)-oxetan-2-yl]methyl}-3H-imidazo[4,5-b]pyridine-5-carboxylic acid] is 1.6-fold lower in EC50: 0.18 nM for the first, 0.11 nM for the second. The second is the more potent here.

Going from `O=C(O)c1ccc2nc(C[C@H]3CC[C@H](Oc4ccnc(Cc5ccc(Cl)cc5)n4)CC3)n(C[C@@H]3CCO3)c2n1` [Compound 177a, 3-{[(2S)-oxetan-2-yl]methyl}-2-{[trans-4-({2-[(4-chlorophenyl)methyl]pyrimidin-4-yl}oxy)cyclohexyl]methyl}-3H-imidazo[4,5-b]pyridine-5-carboxylic acid] to `N#Cc1ccc(Cc2nccc(O[C@H]3CC[C@H](Cc4nc5ccc(C(=O)O)nc5n4C[C@@H]4CCO4)CC3)n2)cc1` [Compound 182a, 3-{[(2S)-oxetan-2-yl]methyl}-2-{[trans-4-({2-[(4-cyanophenyl)methyl]pyrimidin-4-yl}oxy)cyclohexyl]methyl}-3H-imidazo[4,5-b]pyridine-5-carboxylic acid], the EC50 rises from 0.042 nM to 0.07 nM (1.7-fold). The first is the more potent here.

Going from `Clc1ccc(Cc2nccc(OC3CCN(Cc4nc5ccc(-c6nnn[nH]6)nc5n4C[C@@H]4CCO4)CC3)n2)cc1` [Compound 199a, (S)-2-((4-((2-(4-chlorobenzyl)pyrimidin-4-yl)oxy)piperidin-1-yl)methyl)-3-(oxetan-2-ylmethyl)-5-(1H-tetrazol-5-yl)-3H-imidazo[4,5-b]pyridine] to `O=C(O)c1ccc2nc(CN3CCC(Oc4ccnc(Cc5ccc(C(F)(F)F)cc5F)n4)CC3)n(C[C@@H]3CCO3)c2n1` [Compound 163a, 2-({4-[(2-{[2-fluoro-4-(trifluoromethyl)phenyl]methyl}pyrimidin-4-yl)oxy]piperidin-1-yl}methyl)-3-{[(2S)-oxetan-2-yl]methyl}-3H-imidazo[4,5-b]pyridine-5-carboxylic acid], the EC50 falls from 0.95 nM to 0.11 nM (8.6-fold). The second is the more potent here.

Compared with `O=C(O)c1ccc2nc(CN3CCC(C(F)(F)c4cccc(Cc5ccc(Cl)cc5F)n4)CC3)n(C[C@@H]3CCO3)c2n1` [Compound 173a, 2-{[4-({6-[(4-chloro-2-fluorophenyl)methyl]pyridin-2-yl}difluoromethyl)piperidin-1-yl]methyl}-3-{[(2S)-oxetan-2-yl]methyl}-3H-imidazo[4,5-b]pyridine-5-carboxylic acid], `O=C(O)c1ccc2nc(CN3CCC(n4ncc5ccc(Cc6ccc(Cl)cc6F)nc54)CC3)n(C[C@@H]3CCO3)c2n1` [Compound 185a, 2-[(4-{6-[(4-chloro-2-fluorophenyl)methyl]-1H-pyrazolo[3,4-b]pyridin-1-yl}piperidin-1-yl)methyl]-3-{[(2S)-oxetan-2-yl]methyl}-3H-imidazo[4,5-b]pyridine-5-carboxylic acid] is 8.1-fold lower in EC50: 3.8 nM for the first, 0.47 nM for the second.

Going from `O=C(O)c1ccc2nc(C[C@H]3CC[C@H](Oc4cccc(Cc5ccc(Cl)cc5)n4)CC3)n(C[C@@H]3CCO3)c2n1` [Compound 181a, 3-{[(2S)-oxetan-2-yl]methyl}-2-{[trans-4-({6-[(4-chlorophenyl)methyl]pyridin-2-yl}oxy)cyclohexyl]methyl}-3H-imidazo[4,5-b]pyridine-5-carboxylic acid] to `O=C(O)c1ccc2nc(C[C@H]3CC[C@@H](Oc4ccnc(Cc5ccc(Cl)cc5F)n4)CC3)n(C[C@@H]3CCO3)c2n1` [Compound 175a, 3-{[(2S)-oxetan-2-yl]methyl}-2-{[cis-4-({2-[(4-chloro-2-fluorophenyl)methyl]pyrimidin-4-yl}oxy)cyclohexyl]methyl}-3H-imidazo[4,5-b]pyridine-5-carboxylic acid], the EC50 rises from 0.083 nM to 230 nM (2800-fold). The first is the more potent here.

Going from `COCCn1c(C[C@H]2CC[C@H](Oc3ccnc(Cc4ccc(Cl)cc4)n3)CC2)nc2ccc(C(=O)O)nc21` [Compound 179a, 3-(2-methoxyethyl)-2-{[trans-4-({2-[(4-chlorophenyl)methyl]pyrimidin-4-yl}oxy)cyclohexyl]methyl}-3H-imidazo[4,5-b]pyridine-5-carboxylic acid] to `O=C(O)c1ccc2nc(Cc3ccc(Oc4nc(Cc5ccc(Cl)cc5)ncc4F)cc3)n(C[C@@H]3CCO3)c2n1` [Compound 189a, 2-{[4-({2-[(4-chlorophenyl)methyl]-5-fluoropyrimidin-4-yl}oxy)phenyl]methyl}-3-{[(2S)-oxetan-2-yl]methyl}-3H-imidazo[4,5-b]pyridine-5-carboxylic acid], the EC50 falls from 2.8 nM to 0.69 nM (4.1-fold).

Going from `O=C(O)c1ccc2nc(CN3CCC(Oc4cc(Cc5ccc(Cl)cc5F)ccc4F)CC3)n(C[C@@H]3CCO3)c2n1` [Compound 114a, 2-[(4-{5-[(4-chloro-2-fluorophenyl)methyl]-2-fluorophenoxy}piperidin-1-yl)methyl]-3-{[(2S)-oxetan-2-yl]methyl}-3H-imidazo[4,5-b]pyridine-5-carboxylic acid] to `CC(=O)Nc1ccc2nc(CN3CCC(Oc4cccc(Cc5ccc(Cl)cc5F)n4)CC3)n(C[C@@H]3CCO3)c2c1` [Compound 134a, N-(2-{[4-({6-[(4-chloro-2-fluorophenyl)methyl]pyridin-2-yl}oxy)piperidin-1-yl]methyl}-1-{[(2S)-oxetan-2-yl]methyl}-1H-1,3-benzodiazol-6-yl)acetamide], the EC50 rises from 1.7 nM to 58 nM (34-fold). The first is the more potent here.

Same assay, conditions: HEK293/CRE-Luc cell line stably expressing the GLP-1 Receptor; 30 min incubation at 37° C.; read-out: GLP1R cAMP Stimulation DR: pEC50 (converted)

First: Clc1ccc(Cc2nccc(OC3CCN(Cc4nc5ccc(-c6nnn[nH]6)nc5n4C[C@@H]4CCO4)CC3)n2)cc1 [Compound 199a, (S)-2-((4-((2-(4-chlorobenzyl)pyrimidin-4-yl)oxy)piperidin-1-yl)methyl)-3-(oxetan-2-ylmethyl)-5-(1H-tetrazol-5-yl)-3H-imidazo[4,5-b]pyridine]
Second: O=C(O)c1ccc2nc(CN3CCC(Oc4ccnc(Cc5ccc(Cl)cc5Cl)n4)CC3)n(C[C@@H]3CCO3)c2n1 [Compound 164a, 2-{[4-({2-[(2,4-dichlorophenyl)methyl]pyrimidin-4-yl}oxy)piperidin-1-yl]methyl}-3-{[(2S)-oxetan-2-yl]methyl}-3H-imidazo[4,5-b]pyridine-5-carboxylic acid]
The EC50 of the first is 10-fold higher: 1 nM for the first, 0.1 nM for the second.

With `O=C(O)c1ccc2nc(CN3CCC(Oc4ccnc(Cc5ccc(C(F)(F)F)cc5F)n4)CC3)n(C[C@@H]3CCO3)c2n1` [Compound 163a, 2-({4-[(2-{[2-fluoro-4-(trifluoromethyl)phenyl]methyl}pyrimidin-4-yl)oxy]piperidin-1-yl}methyl)-3-{[(2S)-oxetan-2-yl]methyl}-3H-imidazo[4,5-b]pyridine-5-carboxylic acid] the EC50 was 0.1 nM.
